This is an account of results in ChEMBL document CHEMBL4229497, “Design and synthesis of benzofuro[3,2-b]pyridin-2(1H)-one derivatives as anti-leukemia agents by inhibiting Btk and PI3Kδ” (Bioorg Med Chem, 2018).

Calls of active or inactive are those of the source. No cut-off for these calls is given here.

For test [1], the system named is Raji. Description: Antiproliferative activity against human Raji cells after 48 hrs by MTT assay. The test is classed as functional, cell-based. In general terms: Tetrazolium assays rely on reduction of a dye to a coloured formazan, in cell work by metabolically active cells.
In test [2] the test system is K562. Description: Antiproliferative activity against human K562 cells at 40 uM after 48 hrs by MTT assay relative to control. In kind it is functional.
For test [3], the system named is Raji. Description: Antiproliferative activity against human Raji cells at 40 uM after 48 hrs by MTT assay relative to control. In kind it is functional.
Test [4] deals with K562. Description: Antiproliferative activity against human K562 cells after 48 hrs by MTT assay. In kind it is functional, cell-based. The settings on record: K562, 48 h.
Test [5] concerns the target PI3-kinase p110-delta/p85-alpha (Homo sapiens) (UniProt P27986+O00329). Nature of the test: Inhibition of recombinant human full length N-terminal His-tagged PI3K p110delta/p85alpha at 200 nM using lipid substrate after 60 mins by ADP-Glo assay relative to control. The test is classed as protein-complex assay. Background: In ADP-Glo the light output rises with the ADP produced.

Test [6] concerns HL-60. Description: Antiproliferative activity against human HL60 cells after 48 hrs by MTT assay. In kind it is functional, cell-based. The settings on record: HL-60, 48 h.
Test [7] deals with K562. Nature of the test: Inhibition of PI3K/Akt/mTOR pathway in human K562 cells assessed as reduction in Akt phosphorylation at Ser-473 residue at 1 uM after 24 hrs by Western blot analysis. In kind it is cell-based. On the technique in general: Immunoblotting shows a protein as a band on a membrane.
Test [8] has as its target Tyrosine-protein kinase BTK (Homo sapiens, UniProt Q06187). Nature of the test: Inhibition of recombinant full length human N-terminal His tagged BTK expressed in baculovirus infected Sf9 cells using poly (4:1 Glu, Tyr) as substrate after 60 mins by ADP-Glo assay.
For test [9], the system named is HL-60. Description: Antiproliferative activity against human HL60 cells at 40 uM after 48 hrs by MTT assay relative to control. In kind it is functional.
Test [10] in a line: Inhibition of PI3K (unknown origin). Details: species or system Homo sapiens.
Test [11] concerns the target Phosphatidylinositol 4,5-bisphosphate 3-kinase catalytic subunit alpha isoform (Homo sapiens, UniProt P42336). Description: Inhibition of PI3Kalpha (unknown origin).
Test [12] deals with T1, Phosphatidylinositol 4,5-bisphosphate 3-kinase catalytic subunit gamma isoform (Homo sapiens, UniProt P48736). Description: Inhibition of PI3Kgamma (unknown origin).
T1 sequence (P48736 whole entry, canonical isoform): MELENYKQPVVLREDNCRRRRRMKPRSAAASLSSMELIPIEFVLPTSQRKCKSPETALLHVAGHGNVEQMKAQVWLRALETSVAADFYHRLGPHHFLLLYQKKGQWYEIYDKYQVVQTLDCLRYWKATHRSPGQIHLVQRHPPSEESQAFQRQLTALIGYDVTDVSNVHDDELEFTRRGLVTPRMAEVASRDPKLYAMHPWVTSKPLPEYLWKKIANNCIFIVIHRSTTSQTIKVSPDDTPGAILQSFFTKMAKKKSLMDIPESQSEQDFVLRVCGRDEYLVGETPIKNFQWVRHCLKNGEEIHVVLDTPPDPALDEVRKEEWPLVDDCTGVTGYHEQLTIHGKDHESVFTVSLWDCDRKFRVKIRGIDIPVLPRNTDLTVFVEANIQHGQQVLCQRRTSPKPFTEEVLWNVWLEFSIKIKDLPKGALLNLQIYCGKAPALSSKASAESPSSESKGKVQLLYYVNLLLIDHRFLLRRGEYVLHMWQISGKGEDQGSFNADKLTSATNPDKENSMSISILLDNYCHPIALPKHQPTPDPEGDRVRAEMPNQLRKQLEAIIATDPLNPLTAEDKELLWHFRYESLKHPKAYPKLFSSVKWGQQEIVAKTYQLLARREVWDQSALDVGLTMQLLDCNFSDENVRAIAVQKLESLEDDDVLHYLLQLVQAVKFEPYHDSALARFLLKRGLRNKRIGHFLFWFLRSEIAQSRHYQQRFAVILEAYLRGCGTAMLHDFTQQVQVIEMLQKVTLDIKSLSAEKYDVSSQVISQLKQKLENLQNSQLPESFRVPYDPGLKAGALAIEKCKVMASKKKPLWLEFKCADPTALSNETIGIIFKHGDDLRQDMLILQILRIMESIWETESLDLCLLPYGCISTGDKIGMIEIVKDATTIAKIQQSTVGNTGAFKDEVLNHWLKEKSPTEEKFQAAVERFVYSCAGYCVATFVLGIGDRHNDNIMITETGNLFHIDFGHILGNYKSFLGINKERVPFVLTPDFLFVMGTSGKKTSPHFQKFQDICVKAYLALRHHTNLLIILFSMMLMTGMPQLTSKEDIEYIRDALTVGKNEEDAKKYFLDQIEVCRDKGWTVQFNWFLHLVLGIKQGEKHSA
For test [13], the target named is Phosphatidylinositol 4,5-bisphosphate 3-kinase catalytic subunit beta isoform (Homo sapiens, UniProt P42338). Description: Inhibition of PI3Kbeta (unknown origin).
Sequence of Phosphatidylinositol 4,5-bisphosphate 3-kinase catalytic subunit beta isoform (P42338 whole entry, canonical isoform): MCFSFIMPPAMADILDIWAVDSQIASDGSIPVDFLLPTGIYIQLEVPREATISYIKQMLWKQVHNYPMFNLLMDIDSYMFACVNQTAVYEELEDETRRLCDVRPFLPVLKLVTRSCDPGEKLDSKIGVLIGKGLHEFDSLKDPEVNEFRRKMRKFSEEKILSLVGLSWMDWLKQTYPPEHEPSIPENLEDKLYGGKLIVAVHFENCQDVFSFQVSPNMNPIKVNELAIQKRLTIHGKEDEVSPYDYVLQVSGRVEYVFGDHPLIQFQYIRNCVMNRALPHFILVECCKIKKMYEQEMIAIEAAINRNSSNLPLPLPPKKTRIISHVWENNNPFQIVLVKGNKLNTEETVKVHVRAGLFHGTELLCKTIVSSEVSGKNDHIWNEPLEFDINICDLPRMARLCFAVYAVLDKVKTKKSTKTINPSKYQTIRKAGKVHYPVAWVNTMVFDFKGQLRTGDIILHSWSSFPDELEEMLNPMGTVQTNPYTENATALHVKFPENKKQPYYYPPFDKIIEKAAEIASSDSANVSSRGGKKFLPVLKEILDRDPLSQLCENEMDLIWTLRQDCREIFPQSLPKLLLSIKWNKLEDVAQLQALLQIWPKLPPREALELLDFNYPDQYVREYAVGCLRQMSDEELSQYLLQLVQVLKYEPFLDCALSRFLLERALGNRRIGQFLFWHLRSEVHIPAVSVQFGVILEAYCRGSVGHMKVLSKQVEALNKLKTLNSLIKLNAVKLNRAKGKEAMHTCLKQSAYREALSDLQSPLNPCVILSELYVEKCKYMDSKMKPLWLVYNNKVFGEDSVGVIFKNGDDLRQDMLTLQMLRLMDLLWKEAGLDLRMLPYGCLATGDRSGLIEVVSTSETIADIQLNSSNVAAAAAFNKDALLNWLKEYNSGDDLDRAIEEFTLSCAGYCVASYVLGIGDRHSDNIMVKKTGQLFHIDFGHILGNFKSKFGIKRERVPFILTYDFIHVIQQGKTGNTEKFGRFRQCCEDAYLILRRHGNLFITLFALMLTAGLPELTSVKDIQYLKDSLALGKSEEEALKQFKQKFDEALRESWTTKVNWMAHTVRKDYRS
For test [14], the target named is T1, Phosphatidylinositol 4,5-bisphosphate 3-kinase catalytic subunit gamma isoform. Nature of the test: Inhibition of recombinant human full length His-tagged PI3K p110gamma expressed in baculovirus expression system using lipid substrate after 60 mins by ADP-Glo assay.
The target in a further test is PI3K p110 beta/p85 alpha (Homo sapiens, UniProt P42338). Nature of the test: Inhibition of recombinant full length human N-terminal His6-tagged PI3K p110beta/p85alpha expressed in baculovirus infected Sf21 cells using lipid substrate after 60 mins by ADP-Glo assay.
Sequence of PI3K p110 beta/p85 alpha (P27986 whole entry): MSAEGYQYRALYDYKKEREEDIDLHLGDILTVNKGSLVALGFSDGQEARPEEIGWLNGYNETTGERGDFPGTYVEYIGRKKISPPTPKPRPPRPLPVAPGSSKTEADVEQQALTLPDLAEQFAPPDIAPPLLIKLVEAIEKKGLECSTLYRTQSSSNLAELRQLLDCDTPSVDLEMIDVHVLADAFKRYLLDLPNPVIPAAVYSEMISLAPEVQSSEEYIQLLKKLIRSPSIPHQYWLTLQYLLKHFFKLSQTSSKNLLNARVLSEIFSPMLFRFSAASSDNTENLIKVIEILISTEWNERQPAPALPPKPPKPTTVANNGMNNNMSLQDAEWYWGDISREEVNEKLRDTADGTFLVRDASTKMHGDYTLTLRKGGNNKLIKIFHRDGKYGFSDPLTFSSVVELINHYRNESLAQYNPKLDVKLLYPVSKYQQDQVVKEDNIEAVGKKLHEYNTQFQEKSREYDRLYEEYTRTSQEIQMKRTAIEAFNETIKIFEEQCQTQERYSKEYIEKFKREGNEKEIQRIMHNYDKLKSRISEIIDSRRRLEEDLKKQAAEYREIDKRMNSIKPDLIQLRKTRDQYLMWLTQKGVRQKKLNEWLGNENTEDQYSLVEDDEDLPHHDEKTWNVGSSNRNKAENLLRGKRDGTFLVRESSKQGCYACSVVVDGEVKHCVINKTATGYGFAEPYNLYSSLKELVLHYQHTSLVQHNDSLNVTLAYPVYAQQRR
Sequence of PI3K p110 beta/p85 alpha (P42338 whole entry): as the sequence (P42338 whole entry, canonical isoform) above
Test [15] deals with PI3-kinase p110-delta/p85-alpha (Homo sapiens, UniProt O00329). Description: Inhibition of recombinant human full length N-terminal His-tagged PI3K p110delta/p85alpha using lipid substrate after 60 mins by ADP-Glo assay. The test is classed as protein-complex assay.
Test [16] deals with PI3-kinase p110-alpha/p85-alpha (Homo sapiens, UniProt P42336). Description: Inhibition of recombinant human full length His-tagged PI3K p110alpha/p85alpha expressed in baculovirus expression system using lipid substrate after 60 mins by ADP-Glo assay.
Sequence of PI3-kinase p110-alpha/p85-alpha (P27986 whole entry): as the sequence (P27986 whole entry) above
Sequence of PI3-kinase p110-alpha/p85-alpha (P42336 whole entry): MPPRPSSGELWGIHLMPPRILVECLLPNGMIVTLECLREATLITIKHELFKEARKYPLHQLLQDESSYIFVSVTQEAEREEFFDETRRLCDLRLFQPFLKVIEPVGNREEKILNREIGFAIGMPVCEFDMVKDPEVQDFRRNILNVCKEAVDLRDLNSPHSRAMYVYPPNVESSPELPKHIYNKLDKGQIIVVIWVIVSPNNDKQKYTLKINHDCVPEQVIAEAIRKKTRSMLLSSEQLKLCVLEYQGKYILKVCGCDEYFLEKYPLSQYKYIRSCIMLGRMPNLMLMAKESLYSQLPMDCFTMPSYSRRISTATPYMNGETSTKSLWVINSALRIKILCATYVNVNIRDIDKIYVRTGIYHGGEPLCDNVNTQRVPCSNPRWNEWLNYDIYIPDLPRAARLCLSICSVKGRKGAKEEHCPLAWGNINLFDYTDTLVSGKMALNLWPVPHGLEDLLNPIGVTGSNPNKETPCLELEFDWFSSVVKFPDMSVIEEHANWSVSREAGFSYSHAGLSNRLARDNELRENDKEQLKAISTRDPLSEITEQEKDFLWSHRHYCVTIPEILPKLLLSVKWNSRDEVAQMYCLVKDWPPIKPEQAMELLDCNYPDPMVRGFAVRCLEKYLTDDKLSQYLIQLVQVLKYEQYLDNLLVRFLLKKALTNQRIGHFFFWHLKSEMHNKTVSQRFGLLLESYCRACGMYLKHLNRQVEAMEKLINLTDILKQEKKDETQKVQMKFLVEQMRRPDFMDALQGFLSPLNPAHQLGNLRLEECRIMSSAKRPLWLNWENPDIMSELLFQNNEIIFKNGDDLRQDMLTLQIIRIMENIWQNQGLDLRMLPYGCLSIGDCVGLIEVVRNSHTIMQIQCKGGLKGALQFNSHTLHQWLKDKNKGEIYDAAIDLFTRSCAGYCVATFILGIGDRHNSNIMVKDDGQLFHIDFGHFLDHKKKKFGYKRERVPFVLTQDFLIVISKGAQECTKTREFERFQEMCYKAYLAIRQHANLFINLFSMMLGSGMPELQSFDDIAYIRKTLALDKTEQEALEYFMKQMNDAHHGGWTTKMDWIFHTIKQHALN
Test [17] deals with Serine/threonine-protein kinase mTOR (Homo sapiens, UniProt P42345). Nature of the test: Inhibition of recombinant human N-terminal FLAG-tagged mTOR (1362-end residues).

Sequence of Tyrosine-protein kinase BTK (Q06187 whole entry): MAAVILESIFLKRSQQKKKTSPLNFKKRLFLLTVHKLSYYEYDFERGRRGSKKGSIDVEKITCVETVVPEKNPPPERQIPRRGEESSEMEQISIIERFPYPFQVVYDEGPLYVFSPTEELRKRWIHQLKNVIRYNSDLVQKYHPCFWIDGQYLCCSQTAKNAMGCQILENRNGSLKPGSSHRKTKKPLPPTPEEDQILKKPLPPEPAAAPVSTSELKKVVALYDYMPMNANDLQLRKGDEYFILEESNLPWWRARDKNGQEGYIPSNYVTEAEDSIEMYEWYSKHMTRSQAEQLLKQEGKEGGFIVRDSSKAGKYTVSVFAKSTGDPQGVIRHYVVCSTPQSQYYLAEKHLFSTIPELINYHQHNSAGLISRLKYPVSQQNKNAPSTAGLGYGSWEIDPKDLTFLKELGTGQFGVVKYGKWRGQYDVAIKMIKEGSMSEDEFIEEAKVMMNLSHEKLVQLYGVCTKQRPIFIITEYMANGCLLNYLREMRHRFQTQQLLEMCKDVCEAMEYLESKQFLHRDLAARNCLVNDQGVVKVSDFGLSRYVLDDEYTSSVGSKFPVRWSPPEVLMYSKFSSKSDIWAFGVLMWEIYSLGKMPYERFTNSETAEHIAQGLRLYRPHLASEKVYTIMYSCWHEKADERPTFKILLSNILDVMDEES
Sequence of Phosphatidylinositol 4,5-bisphosphate 3-kinase catalytic subunit alpha isoform (P42336 whole entry, canonical isoform): as the sequence (P42336 whole entry) above

As usually defined, the IC50 is the concentration at which inhibition is half-maximal. Regarding `COc1ccc(-c2ccc3oc4ccc(=O)n(-c5ccc(NC(C)=O)cc5)c4c3c2)cn1`, 39 µM corresponded to half-maximal inhibition in the test on Raji [1] (IC50). The compound also registered an Activity with K562 [2] of 47.5%.

In the case of `C=CC(=O)Nc1ccc(-n2c(=O)ccc3oc4ccc(-c5ccc(OC)cc5)cc4c32)cc1`, in the test on K562 [2], the Activity amounted to 28.3%. For the same compound, the outcome in the test on Raji [3] was inactive.

By inhibition is commonly meant how much of the control response was suppressed. On to `Cn1c(=O)n(-c2ccc(C(C)(C)C#N)cc2)c2c3cc(-c4cnc5ccccc5c4)ccc3ncc21` [DACTOLISIB], for which the IC50 in the test with Raji [1] was 4.3 µM; with K562 [4], 5.7 µM; with HL-60 [6], 1 µM. The inhibition in [5] was found to be 64.4%. Also, the “Reduction in Akt Ser-473 phosphorylation” value with K562 [7] is “Active”.

For `COc1ccc(-c2ccc3oc4ccc(=O)n(-c5ccc(NC(=O)CN6CCN(C)CC6)cc5)c4c3c2)cn1`, the IC50 in the test with Raji [1] is 9.72 µM; in test [8] it was 0.139 µM; with K562 [4], 4.7 µM; in the test on HL-60 [6] it was 3.2 µM. For the same compound, the inhibition entry in test [5] was “inactive”.

Turning to `COc1ccc(-c2ccc3oc4ccc(=O)n(-c5ccc(NC(=O)C(F)(F)F)cc5)c4c3c2)cn1`, the results for the Activity in the test with HL-60 [9] and with Raji [3] were 35.4% and 10%, respectively. Moreover, the IC50 in the test on K562 [4] turned out to be 17 µM.

For the compound `COc1ccc(-c2ccc3oc4ccc(=O)n(-c5ccc(NC(=O)CN6CCCCC6)cc5)c4c3c2)cn1`, the IC50 in the test with Raji [1] worked out at 8.01 µM; in [8], 0.106 µM; with K562 [4], 2.6 µM; with HL-60 [6], 4.9 µM. The inhibition result in test [5] is “inactive”. For the same compound, the “Reduction in Akt Ser-473 phosphorylation” value in the test with K562 [7] is “Active”.

Take `C=CC(=O)Nc1ccc(-n2c(=O)ccc3oc4ccc(-c5cccc6[nH]ccc56)cc4c32)cc1`: the IC50 was 15.7 µM with Raji [1], 10.2 µM in the test on K562 [4] and 7.3 µM in the test on HL-60 [6].

`C=CC(=O)Nc1ccc(-n2c(=O)ccc3oc4ccc(-c5cnn(C)c5)cc4c32)cc1`: the IC50 with Raji [1] was found to be 2.4 µM; in test [8], 0.217 µM; in the test with K562 [4], 9.6 µM; in the test on HL-60 [6], 12.6 µM. Moreover, the inhibition in [5] is 4.8%. In addition, the “Reduction in Akt Ser-473 phosphorylation” value with K562 [7] was “Active”.

`COc1ccc(-c2ccc3oc4ccc(=O)n(-c5ccc(NC(=O)CN(C)C)cc5)c4c3c2)cn1`: the IC50 in the test on Raji [1] stood at 12.8 µM; in [8], 0.237 µM; in the test with K562 [4], 4.1 µM; in the test with HL-60 [6] it was 4 µM. Besides, the inhibition result in test [5] was “inactive”. Besides, in the test with K562 [7], the “Reduction in Akt Ser-473 phosphorylation” value is “Active”.

For `COc1ccc(-c2ccc3oc4ccc(=O)n(-c5ccc(NC(=O)CN6CCOCC6)cc5)c4c3c2)cn1`, the IC50 is 13.2 µM in the test on Raji [1], 0.2 µM in [8], 10 µM in the test with K562 [4] and 4 µM in the test with HL-60 [6]. Also, the inhibition in [5] came to 11.6%.

As to `CCN(CC)CC(=O)Nc1ccc(-n2c(=O)ccc3oc4ccc(-c5ccc(OC)nc5)cc4c32)cc1`, the concentration for half-maximal inhibition (IC50) with Raji [1] turned out to be 15.3 µM; in the test on K562 [4], 5.9 µM; with HL-60 [6] it was 8.4 µM.

Consider `C=CC(=O)Nc1ccc(-n2c(=O)ccc3oc4ccc(-c5cccc(N)c5)cc4c32)cc1`, for which the IC50 with Raji [1] was found to be 5.3 µM; with K562 [4], 6.9 µM; in the test on HL-60 [6], 10 µM. Further, in test [5], the inhibition result was “inactive”.

Take `COc1ccc(-c2ccc3oc4ccc(=O)n(-c5ccc(N)cc5)c4c3c2)cn1`: the Activity was 17.6% with K562 [2], 21.5% in the test on HL-60 [9] and 41.5% with Raji [3].

Take `C=CC(=O)Nc1ccc(-n2c(=O)ccc3oc4ccc(-c5ccc(O)cc5)cc4c32)cc1`: the IC50 in the test on Raji [1] came out at 3.9 µM; in the test with K562 [4], 5.7 µM; with HL-60 [6], 3.9 µM. Further, the inhibition in test [5] turned out to be 4.2%.

As to `COc1ccc(-c2ccc3oc4ccc(=O)n(-c5ccc(NC(=O)CN6CCNCC6)cc5)c4c3c2)cn1`, the IC50 with Raji [1] was found to be 5.84 µM; in the test on K562 [4] it was 1.3 µM; in the test on HL-60 [6], 5.5 µM. For the same compound, the inhibition result in [5] was “inactive”. Moreover, the “Reduction in Akt Ser-473 phosphorylation” value in the test with K562 [7] is “Active”.

The compound `C=CC(=O)N1CCc2ccc(-n3c(=O)ccc4cnc5ccc(-c6cnn(C)c6)cc5c43)cc21` gave an IC50 in test [10] of 0.69 µM.

`C=CC(=O)Nc1ccc(-n2c(=O)ccc3oc4ccc(-c5cccc([N+](=O)[O-])c5)cc4c32)cc1`: the figures for the IC50 in the test with Raji [1] and with HL-60 [6] were 25 µM and 28.2 µM, respectively. For the same compound, the Activity with K562 [2] is listed as 39%.

On to `COc1ccc(-c2ccc3ncc4c(c3c2)n(-c2ccc(N3CCNCC3)c(C(F)(F)F)c2)c(=O)n4C)cn1` [BGT-226 FREE BASE], for which the results for the IC50 in test [11], in test [12] and in test [13] were 0.004 µM, 0.038 µM and 0.063 µM, respectively.

`COc1ccc(-c2ccc3oc4ccc(=O)n(-c5ccc(NS(C)(=O)=O)cc5)c4c3c2)cn1`: the IC50 with Raji [1] worked out at 16.7 µM; with K562 [4] it was 16.2 µM; in the test with HL-60 [6], 15.5 µM.

In the case of `C=CC(=O)Nc1ccc(-n2c(=O)ccc3oc4ccc(-c5ccc(C(=O)O)cc5)cc4c32)cc1`, the outcome with K562 [2] was inactive. The Activity in the test with HL-60 [9] is given as 22.2%; in the test with Raji [3], 38%.

Consider `C=CC(=O)Nc1ccc(-n2c(=O)ccc3oc4ccc(-c5ccc(OC)nc5)cc4c32)cc1`, for which the IC50 in the test on K562 [4] is 31 µM; with HL-60 [6] it was 17.9 µM. Moreover, the inhibition entry in [5] is “inactive”. In the test on Raji [3], the Activity is 35%. The “Reduction in Akt Ser-473 phosphorylation” value in the test on K562 [7] is “Active”.

`COc1ccc(-c2ccc3oc4ccc(=O)n(-c5ccc([N+](=O)[O-])cc5)c4c3c2)cn1` gave an Activity with K562 [2] of 28.8%. Moreover, the result with HL-60 [9] and with Raji [3] was inactive.

Turning to `C=CC(=O)Nc1ccc(-n2c(=O)ccc3oc4ccc(-c5cccnc5)cc4c32)cc1`, the IC50 in the test on Raji [1] amounted to 5.2 µM; in [14], 0.684 µM; on PI3K p110 beta/p85 alpha, 0.838 µM; in test [15] it was 0.275 µM; in [8], 0.136 µM; in test [16], 0.254 µM. Moreover, the IC50 stood at 11.1 µM in the test with K562 [4], 4.2 µM in the test with HL-60 [6] and 0.228 µM in test [17]. Besides, the inhibition in test [5] was found to be 45.8%. Besides, the “Reduction in Akt Ser-473 phosphorylation” value with K562 [7] is “Active”.

For `COc1ccc(-c2ccc3oc4ccc(=O)n(-c5ccc(NCC(=O)O)cc5)c4c3c2)cn1`, the figures for the IC50 with Raji [1] and in the test with HL-60 [6] were 39.5 µM and 12.7 µM, respectively. Moreover, the Activity in the test on K562 [2] was 46%.

In the case of `CNCC(=O)Nc1ccc(-n2c(=O)ccc3oc4ccc(-c5ccc(OC)nc5)cc4c32)cc1`, the results for the IC50 in the test on Raji [1], with K562 [4] and in the test on HL-60 [6] were 6.26 µM, 3.5 µM and 3.2 µM, respectively.

Regarding `COc1ccc(-c2ccc3oc4ccc(=O)n(-c5ccc(NC(=O)CN6CCCC6)cc5)c4c3c2)cn1`, the IC50 in the test with Raji [1] came out at 11.3 µM; in [8], 0.183 µM; in the test with K562 [4], 6.5 µM; in the test on HL-60 [6] it was 5.4 µM. Further, the inhibition entry in test [5] is “inactive”.

For the compound `C=CC(=O)N1CCC[C@@H](n2nc(-c3ccc(Oc4ccccc4)cc3)c3c(N)ncnc32)C1` [IBRUTINIB], the figures for the IC50 in the test on Raji [1], in the test with K562 [4] and with HL-60 [6] were 14.2 µM, 7.5 µM and 8 µM, respectively.

As for `CCOC(=O)CNc1ccc(-n2c(=O)ccc3oc4ccc(-c5ccc(OC)nc5)cc4c32)cc1`, the results for the Activity in the test on K562 [2] and in the test with HL-60 [9] were 29.4% and 46%, respectively. Further, in the test on Raji [3], the outcome was inactive.
